# Source: ChEMBL document CHEMBL1201862, “PubChem BioAssay data set” (2004)
# Active and inactive are the calls of the source. For most assays here, no stated cut-off is given here; in the data, actives have a measured EC50 and inactives only a lower limit.
# What was measured:
# INS1 = test: INS-1E survival protection against cytokine death – cell-based, luminescence, retest, dose response (AID 449756); format: functional; conditions: Rattus norvegicus;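 further: cell death triggered by IL-1 beta plus TNF-alpha plus IFN-gamma mixture; protective hits raise ATP signal compared with cytokine alone wells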
# [1] = luciferase reporter signal suppression in cells – H4 neuroglioma cells, luminescence, dose response (AID 1990); format: functional, cell-based
# [2] = Luminescence Cell-Based Dose Response HTS to Identify Inhibitors of 5'UTR Stem-Loop Driven Prion Protein mRNA Translation in H4 Neuroglioblastoma Cells. [Related pubchem assays: 1827 (Project Summary), 1813 (Primary HTS)]; format: functional
# [3] = alpha-synuclein stem-loop luciferase translation blockers – H4 neuroglioma cells, luminescence, confirmation (AID 1988); format: functional, cell-based
# Cytochrome P450 3A4 = Cytochrome P450 3A4 (Homo sapiens, UniProt P08684);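 further: CYP3A4 tested as one member of a cytochrome P450 panel screen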
# [4] = target: T1, Heat shock factor protein 1 (Mus musculus, UniProt P38532); test: decrease of HSF1-responsive luciferase luminescence – cell-based, NIH3T3, dose retest, confirmation (AID 2382); format: functional;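 further: NIH3T3 fibroblasts with HSF1-driven luciferase reporter stressed by proteasome inhibitor MG132; luminescence from HSF1-driven luciferase expression after 8 hours of MG132 stress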
# T1 sequence (P38532 whole entry): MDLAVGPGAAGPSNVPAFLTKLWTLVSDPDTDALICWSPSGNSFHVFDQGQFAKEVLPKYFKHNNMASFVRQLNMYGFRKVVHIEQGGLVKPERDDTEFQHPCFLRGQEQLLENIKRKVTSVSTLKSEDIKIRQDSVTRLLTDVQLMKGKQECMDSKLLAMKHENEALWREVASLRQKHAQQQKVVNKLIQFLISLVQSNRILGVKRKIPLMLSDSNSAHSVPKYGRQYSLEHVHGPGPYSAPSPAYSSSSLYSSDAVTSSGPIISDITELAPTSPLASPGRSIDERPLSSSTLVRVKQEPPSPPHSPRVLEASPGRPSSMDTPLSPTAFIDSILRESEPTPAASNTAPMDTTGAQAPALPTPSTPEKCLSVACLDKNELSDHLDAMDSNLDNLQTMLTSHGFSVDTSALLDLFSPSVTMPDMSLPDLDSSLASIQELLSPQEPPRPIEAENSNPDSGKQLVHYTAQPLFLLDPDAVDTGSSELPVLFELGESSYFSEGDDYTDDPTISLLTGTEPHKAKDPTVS
# [5] = target: T2, RNA-binding protein pos-1 (Caenorhabditis elegans, UniProt G5EF15); test: disruptors of C. elegans POS-1 RNA interaction – biochemical, fluorescence polarization, dose response (AID 1964);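 further: purified POS-1 fused to maltose binding protein made in E. coli; potency of compounds blocking POS-1 binding to fluorescent RNA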
# T2 sequence (G5EF15 whole entry): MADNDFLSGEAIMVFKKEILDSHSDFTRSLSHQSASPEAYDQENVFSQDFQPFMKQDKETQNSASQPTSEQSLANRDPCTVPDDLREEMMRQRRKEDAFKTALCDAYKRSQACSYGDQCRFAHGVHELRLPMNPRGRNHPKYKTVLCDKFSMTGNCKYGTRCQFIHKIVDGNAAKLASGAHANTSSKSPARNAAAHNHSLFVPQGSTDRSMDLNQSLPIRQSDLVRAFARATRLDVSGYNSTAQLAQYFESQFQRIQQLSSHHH
# [6] = non-specific 3'UTR reporter inhibition in Clone20-Shn3RL – cell-based, Renilla luciferase, cherry-picked, counter-screen for Shn3 inhibitor project, dose response (AID 624133); format: functional
# Streptococcus = test: GAS UMAA2166 growth inhibition – luminescence, BacTiterGlo, counter-screen for streptokinase expression inhibitor project, dose response (AID 1915); format: functional, organism-based;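 further: potency for reduction of bacterial viability or growth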
# Streptokinase A = target: T3, Streptokinase A (Streptococcus pyogenes serotype M1, UniProt P10520); test: viability-normalized secreted streptokinase activity reduction – plasminogen activation absorbance, OD405, dose response (AID 1914); format: functional, Streptococcus pyogenes M1 GAS;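 further: secreted streptokinase activity via plasminogen activation per viability signal from cell pellet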
# T3 sequence (P10520 whole entry): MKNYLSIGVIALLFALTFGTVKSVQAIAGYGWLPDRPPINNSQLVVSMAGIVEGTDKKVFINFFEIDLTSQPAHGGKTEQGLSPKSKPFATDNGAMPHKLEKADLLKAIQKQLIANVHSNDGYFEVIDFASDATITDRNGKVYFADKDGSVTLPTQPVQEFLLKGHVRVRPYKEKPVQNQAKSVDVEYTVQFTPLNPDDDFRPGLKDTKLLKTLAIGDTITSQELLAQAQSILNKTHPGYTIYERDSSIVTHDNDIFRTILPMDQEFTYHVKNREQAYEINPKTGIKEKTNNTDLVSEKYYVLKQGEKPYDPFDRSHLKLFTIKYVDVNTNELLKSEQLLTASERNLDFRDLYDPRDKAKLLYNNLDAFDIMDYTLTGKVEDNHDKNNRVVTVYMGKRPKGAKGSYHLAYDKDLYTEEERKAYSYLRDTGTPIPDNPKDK
# [7] = test system: Streptococcus sp. 'group A'; test: Streptococcus pyogenes SK(-)GAS viability under kanamycin – luminescence, BacTiterGlo, confirmation, counter-screen for streptokinase expression inhibitor project, dose response (AID 1900); format: functional, organism-based
# Chain of Cytochrome P450 3A4 (P08684 whole entry): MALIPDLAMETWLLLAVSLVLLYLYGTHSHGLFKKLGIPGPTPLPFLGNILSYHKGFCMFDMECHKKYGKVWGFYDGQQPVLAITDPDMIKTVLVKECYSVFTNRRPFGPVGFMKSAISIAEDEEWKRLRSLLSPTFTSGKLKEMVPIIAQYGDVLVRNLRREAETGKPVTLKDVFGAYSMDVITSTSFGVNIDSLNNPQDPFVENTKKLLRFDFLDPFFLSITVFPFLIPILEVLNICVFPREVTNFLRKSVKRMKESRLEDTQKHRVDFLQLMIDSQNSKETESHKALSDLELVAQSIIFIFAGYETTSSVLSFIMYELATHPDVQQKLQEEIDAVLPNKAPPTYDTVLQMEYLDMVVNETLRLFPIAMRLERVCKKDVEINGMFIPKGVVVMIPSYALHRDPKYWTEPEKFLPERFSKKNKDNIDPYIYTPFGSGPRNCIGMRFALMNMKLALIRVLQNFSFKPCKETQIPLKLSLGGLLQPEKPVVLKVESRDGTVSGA
Compound,EC50 [1],EC50 [2],EC50 [3],other results
C=C(C)C(=O)N1CC2(CC(c3cccc(NC(=O)COc4ccc(Cl)cc4)c3)=NO2)C[C@@H]1C(N)=O (stereo not given in full),–,–,–,AC50 (INS1): 9.67 µM (active)
COc1ccc(NC(=O)CN2C(=O)COc3ccc(S(=O)(=O)N4CCCCCC4)cc32)cc1,> 120 µM (not active),> 120 µM (not active),> 120 µM (not active),–
CCn1c(SCc2cc(O)nc3ccccc23)nnc1C1CC1,> 120 µM (not active),> 120 µM (not active),> 120 µM (not active),–
CC(O)CNc1nc2sc3c(c2c(=O)n1Cc1ccco1)CCCCC3 (stereo not given),–,–,–,AC50 (INS1): 45 µM (active)
CCNc1ncc2nc(CCc3ccccc3)c(=O)n(C)c2n1,–,–,–,AC50 (Cytochrome P450 3A4): 31.6 µM (inconclusive)
CCc1ccc(OC)c(S(=O)(=O)Nc2ccc(Cc3ccncc3)cc2)c1,–,–,–,AC50 (INS1): 3.7 µM (active)
O=S(=O)(c1cccs1)N1CCN(CC(O)COc2cc(Cl)ccc2Cl)CC1 (stereo not given),–,–,–,AC50 (INS1): 5.11 µM (active)
CC(=O)OC[C@H]1O[C@@H](O/N=C(\C)CCN2CCCc3nc(C)c(C)cc32)[C@H](OC(C)=O)[C@@H](OC(C)=O)[C@H]1OC(C)=O,–,–,–,AC50 (Cytochrome P450 3A4): 3.98 µM (inconclusive)
CCOc1ccccc1-c1nnc(SCC(=O)NC2CC3CCC2C3)n1CC (stereo not given),> 120 µM (not active),> 120 µM (not active),16.7 µM (active),–
CCOC(=O)c1cccc(NC(=O)Nc2ccc(OCC)cc2)c1,11.2 µM (inconclusive),10.8 µM (active),9.81 µM (active),–
CC1(C)CC(NCc2ccc3c(c2)OCO3)CCO1 (stereo not given),–,–,–,EC50 [4]: > 195 µM (not active); AC50 (Cytochrome P450 3A4): 17.8 µM (inconclusive)
S=C(c1ccc(-c2ccccc2)cc1)N1CCOCC1,10.9 µM (active),15.5 µM (active),9.91 µM (active),–
CC(=O)N1CCC2(CCCN(c3ccccc3)C2)CC1,–,–,–,AC50 (Cytochrome P450 3A4): 20 µM (inconclusive)
Cc1cc(NC(=O)CSc2nc3ccccc3[nH]2)n(-c2ccccc2)n1,> 120 µM (not active),> 120 µM (not active),> 120 µM (not active),–
COc1ccc(N2C(=O)NC(=O)/C(=C\c3cn(C)c4ccccc34)C2=O)cc1,–,–,–,EC50 [5]: 1.05 µM (active)
Cc1ccc(C(=O)NC2CCN(S(=O)(=O)c3ccc(C)cc3)CC2)cc1,> 120 µM (not active),4.43 µM (active),45.4 µM (active),–
O=C(CSc1nc2cc(Cl)c[nH]c-2n1)N1CCOCC1,–,–,–,AC50 [6]: 32.3 µM (active)
CCOc1ccc(C(=O)N/N=C(\c2ccccc2)c2ccccn2)cc1,–,–,–,EC50 (Streptococcus): 11.8 µM (active); AC50 (INS1): 1.19 µM (active); EC50 (Streptokinase A): > 150 µM (not active); EC50 [7]: 4.25 µM (active)
CCCC/C(=N\CCc1c(C)[nH]c2ccc(OC)cc12)C1=C(O)CC(c2ccccc2)CC1=O (stereo not given),9.11 µM (active),> 120 µM (not active),2.61 µM (active),–
COc1ccccc1NC(=O)Nc1nc(-c2cccnc2)nc2ccccc12,–,–,–,AC50 (Cytochrome P450 3A4): 0.631 µM (inconclusive)
